Earlier results in US4916163A, “Spray-dried lactose formulation of micronized glyburide” (The Upjohn Company, priority 1985, dated 1990).

System: Type II (adult-onset) diabetes mellitus
Settings: in words, background

Structure (SMILES): COc1ccc(Cl)cc1C(=O)NCCc1ccc(S(=O)(=O)NC(=O)NC2CCCCC2)cc1 [glyburide, N-[4-(β-[2-methoxy-5-chloro-benzamido]-ethyl)-benzenesulfonyl]-N'-cyclohexyl-urea]
- Reduction of serum glucose concentrations: effective in reducing serum glucose concentrations
